Test results from patent publication US4331803A, “Novel erythromycin compounds” (Taisho Pharmaceutical Co., Ltd., priority 1980, dated 1982).
≈ marks a conversion by molar mass, not a printed value. Like-named read-outs stand apart in the source and are kept apart here.

Assays:
[1] = Acid stability (pH 2), remaining antibacterial activity by disc method; assay type: physicochemical, Staphylococcus aureus FDA 209P
Method: (§1) The compound of the formula(I) was treated in the Clark-Lubs's buffer solution at pH 2 for the prescribed period of time.
(§2) Thereafter, the remaining antibacterial activity was determined by a disc method, using Staphylococcus aureus FDA 209P. Erthromycin A was also tested for the control.

[2] = system: Staphylococcus aureus FDA 209P; test: as above; assay type: physicochemical; settings: pH 2, Clark-Lubs's buffer, 0 min
Method: as §1, §2

[3] = system: Staphylococcus aureus TPR-5; test: Antibacterial activity, agar plate dilution method (MIC); assay type: cell-based
Method: (§3) The compound of the formula(I) was tested for the antibacterial activity by the agar plate dilution method, using erythromycin A for the control.
*Strain resistant to sulfonamides and penicillins

[4] = system: Staphylococcus aureus TPR-7; test: as above; assay type: cell-based
Method: as §3
**Strain resistant to sulfonamides and tetracyclines

[5] = system: Staphylococcus epidermidis TPR-14; test: as above; assay type: cell-based
Method: as §3
***Strain resistant to sulfonamides, penicillins and chloramphenicol

[6] = system: Bacillus cereus ATCC 9634; test: as above; assay type: cell-based
Method: as §3

[7] = system: Bacillus subtilis ATCC 6633; test: as above; assay type: cell-based
Method: as §3

[8] = system: Micrococcus luteus ATCC 9341; test: as above; assay type: cell-based
Method: as §3

[9] = system: Staphylococcus aureus FDA 209P; test: as above; assay type: cell-based; settings: FDA209P, read-out: MIC value
Method: as §3

[10] = system: Staphylococcus aureus Smith; test: as above; assay type: cell-based; settings: read-out: MIC value
Method: as §3

[11] = system: Staphylococcus aureus Terashima; test: as above; assay type: cell-based; settings: read-out: MIC value
Method: as §3

[12] = system: Staphylococcus epidermidis IID866; test: as above; assay type: cell-based
Method: as §3

[13] = system: Streptococcus faecalis ATCC 8043; test: as above; assay type: cell-based; settings: Enterococcus faecalis
Method: as §3

[14] = system: Staphylococcus aureus Smith No. 4; test: In vivo activity, survival of infected mice after oral administration; parameters: species or system male ddY mice; settings: 1 h after inoculation, 14 mice per group, 7 days
Method: Male ddY mice (body weight, 18-22 g; 14 mice per group) were inoculated with Staphylococcus aureus Smith No. 4. The compound of the formula(I) was administered orally one hour after the inoculation, and the number of mice surviving for seven days after the administration was noted.

[15] = cited from earlier work
[16] = TPR5, Staphylococcus aureus TPR-5, resistant to sulfonamides and penicillins, read-out: MIC value
[17] = TPR7, Staphylococcus aureus TPR-7, resistant to sulfonamides and tetracyclines, read-out: MIC value
[18] = TPR14, Staphylococcus epidermidis TPR-14, resistant to sulfonamides, penicillins and chloramphenicol, read-out: MIC value
[19] = ATCC9634, Bacillus cereus ATCC 9634, read-out: MIC value
[20] = ATCC6633, Bacillus subtilis ATCC 6633, read-out: MIC value
[21] = ATCC9341, Micrococcus luteus ATCC 9341, read-out: MIC value
[22] = Staphylococcus aureus Terashima
[23] = Staphylococcus epidermidis IID866, read-out: MIC value
[24] = ATCC8043, Streptococcus faecalis ATCC 8043, read-out: MIC value

Structure (SMILES)	Remaining activity [2]	The number of surviving mice ([14]; 0.40 mg/kg oral)	The number of surviving mice ([14]; 1.56 mg/kg oral)	The number of surviving mice ([14]; 6.25 mg/kg oral)	The number of surviving mice ([14]; 25 mg/kg oral)	The number of surviving mice ([14]; 100 mg/kg oral)	The number of surviving mice ([14]; 400 mg/kg oral)	remaining at 0.25 h ([1]; clark-lubs buffer, pH 2)	remaining at 0.5 h ([1]; clark-lubs buffer, pH 2)	remaining at 1 h ([1]; clark-lubs buffer, pH 2)	remaining at 2 h ([1]; clark-lubs buffer, pH 2)	MIC [3, 16]	MIC [4, 17]	MIC [5, 18]	MIC [6, 19]	MIC [7, 20]	MIC [8, 21]	MIC ([9]; Staphylococcus aureus FDA 209P)	MIC ([10]; Staphylococcus aureus Smith)	MIC [11, 22]	also measured
CC[C@H]1OC(=O)[C@H](C)[C@@H](O[C@H]2C[C@@](C)(OC)[C@@H](O)[C@H](C)O2)[C@H](C)[C@@H](O[C@@H]2O[C@H](C)C[C@H](N(C)C)[C@H]2O)[C@](C)(O)C[C@@H](C)C(=O)[C@H](C)[C@@H](O)[C@]1(C)O [Erythromycin A, erythromycin A, reference compound]	100%	0 mice	0 mice	0 mice	1 mice	11 mice	14 mice														remaining at 0.25 h ([1]; pH 2, Clark-Lubs's buffer, 15 min, read-out: Remaining activity): 1.5%; remaining at 0.5 h ([1]; pH 2, Clark-Lubs's buffer, 30 min, read-out: Remaining activity): 0.5%; remaining at 1 h ([1]; pH 2, Clark-Lubs's buffer, 60 min, read-out: Remaining activity): 0%; remaining at 2 h ([1]; pH 2, Clark-Lubs's buffer, 120 min, read-out: Remaining activity): 0%; MIC ([3]; Staphylococcus aureus, TPR5, read-out: MIC value): 0.4 µg/mL (≈ 0.545 µM); MIC ([4]; Staphylococcus aureus, TPR7, read-out: MIC value): 0.4 µg/mL (≈ 0.545 µM); MIC ([5]; Staphylococcus epidermidis, TPR14, read-out: MIC value): 0.4 µg/mL (≈ 0.545 µM); MIC ([6]; Bacillus cereus, ATCC9634, read-out: MIC value): 0.4 µg/mL (≈ 0.545 µM); MIC ([7]; Bacillus subtilis, ATCC6633, read-out: MIC value): 0.1 µg/mL (≈ 0.136 µM); MIC ([8]; Micrococcus luteus, ATCC9341, read-out: MIC value): ≤ 0.05 µg/mL; MIC ([9]; Staphylococcus aureus): 0.2 µg/mL (≈ 0.273 µM); MIC ([10]; Staphylococcus aureus): 0.4 µg/mL (≈ 0.545 µM); MIC ([11]; Staphylococcus aureus): 0.4 µg/mL (≈ 0.545 µM); MIC ([12]; Staphylococcus epidermidis, IID866, read-out: MIC value): 0.4 µg/mL (≈ 0.545 µM); MIC ([13]; ATCC8043, read-out: MIC value): 0.05 µg/mL (≈ 0.0681 µM); antibacterial activity after oral administration (acid in stomach) [15]: loses rapidly the antibacterial activity; blood concentration ([15]; oral): remains at a low level
CC[C@H]1OC(=O)[C@H](C)[C@@H](O[C@H]2C[C@@](C)(OC)[C@@H](O)[C@H](C)O2)[C@H](C)[C@@H](O[C@@H]2O[C@H](C)C[C@H](N(C)C)[C@H]2O)[C@](C)(OC)C[C@@H](C)C(=O)[C@H](C)[C@@H](O)[C@]1(C)O [TE-031, 6-O-methylerythromycin A]	100%	0 mice	1 mice	3 mice	13 mice	14 mice	14 mice	100%	95%	80%	65%	0.2 µg/mL (≈ 0.267 µM)	0.2 µg/mL (≈ 0.267 µM)	0.2 µg/mL (≈ 0.267 µM)	0.2 µg/mL (≈ 0.267 µM)	0.05 µg/mL (≈ 0.0668 µM)	≤ 0.05 µg/mL	0.05 µg/mL (≈ 0.0668 µM)	0.2 µg/mL (≈ 0.267 µM)	0.2 µg/mL (≈ 0.267 µM)	MIC [12, 23]: 0.2 µg/mL (≈ 0.267 µM); MIC [13, 24]: 0.05 µg/mL (≈ 0.0668 µM)
CC[C@H]1OC(=O)[C@H](C)[C@@H](O[C@H]2C[C@@](C)(OC)[C@@H](O)[C@H](C)O2)[C@H](C)[C@@H](O[C@@H]2O[C@H](C)C[C@H](N(C)C)[C@H]2O)[C@](C)(OC)C[C@@H](C)C(=O)[C@H](C)[C@@H](OC)[C@]1(C)O [TE-032, 6,11-di-O-methylerythromycin A]	100%	0 mice	0 mice	4 mice	7 mice	14 mice	14 mice	100%	95%	85%	65%	0.4 µg/mL (≈ 0.525 µM)	0.4 µg/mL (≈ 0.525 µM)	0.4 µg/mL (≈ 0.525 µM)	0.4 µg/mL (≈ 0.525 µM)	0.05 µg/mL (≈ 0.0656 µM)	≤ 0.05 µg/mL	0.1 µg/mL (≈ 0.131 µM)	0.1 µg/mL (≈ 0.131 µM)	0.4 µg/mL (≈ 0.525 µM)	MIC [12, 23]: 0.4 µg/mL (≈ 0.525 µM); MIC [13, 24]: 0.05 µg/mL (≈ 0.0656 µM)
